Patent publication US9738634B2, “Heterocyclic amide compound and herbicide” (SYNGENTA PARTICIPATIONS AG, priority 2013, dated 2017)

Experiments:
Format in all cases: in vivo
[1] = system: bulrush; test: Test Example 2: weedkilling efficacy, growth period weed treatment in the submerged state; B: bulrush; details: treatment dosage 108.36 g/ha
How it was run: (§1)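 Seedlings at 1-2 leaves in 4 cm-deep submerged alluvial soil received emulsion formulations on the water surface, dosed per hectare; effects were judged 3 weeks on.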

[2] = system: birds-eye speedwell; test: Test Example 3: weedkilling efficacy through soil treatment; p: birds-eye speedwell; details: treatment dosage 135.45 g/ha
How it was run: (§2)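 Crop and weed responses were judged three weeks after a uniform surface spray of the water-diluted emulsion at the given g/ha rate. Seeds sat beneath about 1.5 cm of sterilized diluvial soil, and boxes stood in a greenhouse at 25 to 30° C.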

[3] = system: Indian mallow; test: Test Example 4: weedkilling efficacy by foliar treatment; K: Indian mallow; details: treatment dosage 135.45 g/ha
Experimental: (§3) Testing of Weedkilling Efficacy by Foliar Treatment
(§4) Sterilized diluvial soil was introduced into 21 cm long, 13 cm wide, 7 cm deep plastic boxes, and seeds of crabgrass, green foxtail, barnyard grass, wild oat, black-grass, Italian ryegrass, common wind-grass, Indian mallow, redroot pigweed, fig-leafed goosefoot, chickweed, catchweed, birds-eye speedwell, corn, soybean, rice, wheat, beet and rapeseed were each spot-sown, and covered with about 1.5 cm of soil, then the plants were grown in a greenhouse at 25 to 30° C.
(§5) After they had grown for 14 days, emulsions of compounds of the present invention prepared according to compounding example 2 were diluted with water to give the specified dosages, and applied uniformly onto the stem and leaf parts with a small sprayer. 3 weeks after the pesticide treatment the effect on each type of plant was investigated on the basis of the assessment criteria of test example 1.
(§6) A: barnyard grass, B: bulrush, C: oval-leafed pondweed, D: crabgrass, E: green foxtail, F: barnyard grass, G: wild oat, H: black-grass, I: Italian ryegrass, J: common wind-grass, K: Indian mallow, L: redroot pigweed, M: fig-leafed goosefoot, N: chickweed, O: catchweed, p: birds-eye speedwell, a: transplanted rice, b: directly sown rice, c: corn, d: soybean, e: wheat, f: beet, g: rapeseed
(§7) Further, pesticide dosage (g/ha) indicates the concentration regulated such that treatment was with only the stated number of grams (g), when calculated per hectare (ha).

[4] = system: green foxtail; test: Test Example 3: weedkilling efficacy through soil treatment; E: green foxtail; details: treatment dosage 135.45 g/ha
How it was run: as §2

[5] = system: transplanted rice; test: Test Example 1: preemergent weed treatment in the submerged state, effect on crop; a: transplanted rice; details: treatment dosage 108.36 g/ha
How it was run: (§8)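 Submerged pre-emergence treatment, water-surface application of compound emulsion at g/ha dosages; 4 cm flooded alluvial soil, weeds sown and 2.5-leaf rice transplanted same day. Rated after 3 weeks, greenhouse.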

[6] = system: soybean; test: Test Example 3: soil treatment, effect on crop; d: soybean; details: treatment dosage 135.45 g/ha
How it was run: as §2

[7] = system: chickweed; test: Test Example 4: weedkilling efficacy by foliar treatment; N: chickweed; details: treatment dosage 135.45 g/ha
Experimental: as §3, §4, §5, §6, §7

[8] = system: oval-leafed pondweed; test: Test Example 1: weedkilling efficacy, preemergent weed treatment in the submerged state; C: oval-leafed pondweed; details: treatment dosage 108.36 g/ha
How it was run: as §8

[9] = system: wheat; test: Test Example 4: foliar treatment, effect on crop; e: wheat; details: treatment dosage 135.45 g/ha
Experimental: as §3, §4, §5, §6, §7

[10] = system: crabgrass; test: Test Example 4: weedkilling efficacy by foliar treatment; D: crabgrass; details: treatment dosage 135.45 g/ha
Experimental: as §3, §4, §5, §6, §7

[11] = system: redroot pigweed; test: Test Example 4: weedkilling efficacy by foliar treatment; L: redroot pigweed; details: treatment dosage 135.45 g/ha
Experimental: as §3, §4, §5, §6, §7

[12] = system: Italian ryegrass; test: Test Example 4: weedkilling efficacy by foliar treatment; I: Italian ryegrass; details: treatment dosage 135.45 g/ha
Experimental: as §3, §4, §5, §6, §7

[13] = system: wheat; test: Test Example 3: soil treatment, effect on crop; e: wheat; details: treatment dosage 135.45 g/ha
How it was run: as §2

[14] = system: birds-eye speedwell; test: Test Example 4: weedkilling efficacy by foliar treatment; p: birds-eye speedwell; details: treatment dosage 135.45 g/ha
Experimental: as §3, §4, §5, §6, §7

[15] = system: chickweed; test: Test Example 3: weedkilling efficacy through soil treatment; N: chickweed; details: treatment dosage 135.45 g/ha
How it was run: as §2

[16] = system: barnyard grass; test: Test Example 1: weedkilling efficacy, preemergent weed treatment in the submerged state; A: barnyard grass; details: treatment dosage 108.36 g/ha
How it was run: as §8

[17] = system: corn; test: Test Example 3: soil treatment, effect on crop; c: corn; details: treatment dosage 135.45 g/ha
How it was run: as §2

[18] = system: black-grass; test: Test Example 3: weedkilling efficacy through soil treatment; H: black-grass; details: treatment dosage 135.45 g/ha
How it was run: as §2

[19] = system: bulrush; test: Test Example 1: weedkilling efficacy, preemergent weed treatment in the submerged state; B: bulrush; details: treatment dosage 108.36 g/ha
How it was run: as §8

[20] = system: directly sown rice; test: Test Example 3: soil treatment, effect on crop; b: directly sown rice; details: treatment dosage 135.45 g/ha
How it was run: as §2

[21] = system: corn; test: Test Example 4: foliar treatment, effect on crop; c: corn; details: treatment dosage 135.45 g/ha
Experimental: as §3, §4, §5, §6, §7

[22] = system: redroot pigweed; test: Test Example 3: weedkilling efficacy through soil treatment; L: redroot pigweed; details: treatment dosage 135.45 g/ha
How it was run: as §2

[23] = system: black-grass; test: Test Example 4: weedkilling efficacy by foliar treatment; H: black-grass; details: treatment dosage 135.45 g/ha
Experimental: as §3, §4, §5, §6, §7

[24] = system: catchweed; test: Test Example 4: weedkilling efficacy by foliar treatment; O: catchweed; details: treatment dosage 135.45 g/ha
Experimental: as §3, §4, §5, §6, §7

[25] = system: soybean; test: Test Example 4: foliar treatment, effect on crop; d: soybean; details: treatment dosage 135.45 g/ha
Experimental: as §3, §4, §5, §6, §7

[26] = system: directly sown rice; test: Test Example 4: foliar treatment, effect on crop; b: directly sown rice; details: treatment dosage 135.45 g/ha
Experimental: as §3, §4, §5, §6, §7

[27] = system: beet; test: Test Example 4: foliar treatment, effect on crop; f: beet; details: treatment dosage 135.45 g/ha
Experimental: as §3, §4, §5, §6, §7

[28] = system: Indian mallow; test: Test Example 3: weedkilling efficacy through soil treatment; K: Indian mallow; details: treatment dosage 135.45 g/ha
How it was run: as §2

[29] = system: fig-leafed goosefoot; test: Test Example 3: weedkilling efficacy through soil treatment; M: fig-leafed goosefoot; details: treatment dosage 135.45 g/ha
How it was run: as §2

[30] = system: oval-leafed pondweed; test: Test Example 2: weedkilling efficacy, growth period weed treatment in the submerged state; C: oval-leafed pondweed; details: treatment dosage 108.36 g/ha
How it was run: as §1

[31] = system: green foxtail; test: Test Example 4: weedkilling efficacy by foliar treatment; E: green foxtail; details: treatment dosage 135.45 g/ha
Experimental: as §3, §4, §5, §6, §7

[32] = system: fig-leafed goosefoot; test: Test Example 4: weedkilling efficacy by foliar treatment; M: fig-leafed goosefoot; details: treatment dosage 135.45 g/ha
Experimental: as §3, §4, §5, §6, §7

[33] = system: barnyard grass; test: Test Example 2: weedkilling efficacy, growth period weed treatment in the submerged state; A: barnyard grass; details: treatment dosage 108.36 g/ha
How it was run: as §1

[34] = system: crabgrass; test: Test Example 3: weedkilling efficacy through soil treatment; D: crabgrass; details: treatment dosage 135.45 g/ha
How it was run: as §2

[35] = system: Italian ryegrass; test: Test Example 3: weedkilling efficacy through soil treatment; I: Italian ryegrass; details: treatment dosage 135.45 g/ha
How it was run: as §2

CC1=C(c2ccccc2)C(=O)N(C(C)(C)C(=O)Nc2cccc(C)n2)CO1 [B-2-53]
B (bulrush) weedkilling efficacy grade [1]: 5 (weed kill ratio 90% or more, (practically complete withering)) | P (birds-eye speedwell) weedkilling efficacy grade [2]: 5 (weed kill ratio 90% or more, (practically complete withering)) | K (Indian mallow) weedkilling efficacy grade [3]: 4 (weed kill ratio 70% or more, less than 90%) | E (green foxtail) weedkilling efficacy grade [4]: 5 (weed kill ratio 90% or more, (practically complete withering)) | a (transplanted rice) effect on crop grade [5]: 0 (weed kill ratio 5% or less (practically no effect)) | d (soybean) effect on crop grade [6]: 0 (weed kill ratio 5% or less (practically no effect)) | N (chickweed) weedkilling efficacy grade [7]: 1 (weed kill ratio 5% or more, less than 20%) | C (oval-leafed pondweed) weedkilling efficacy grade [8]: 5 (weed kill ratio 90% or more, (practically complete withering)) | e (wheat) effect on crop grade [9]: 1 (weed kill ratio 5% or more, less than 20%) | D (crabgrass) weedkilling efficacy grade [10]: 5 (weed kill ratio 90% or more, (practically complete withering)) | L (redroot pigweed) weedkilling efficacy grade [11]: 4 (weed kill ratio 70% or more, less than 90%) | I (Italian ryegrass) weedkilling efficacy grade [12]: 5 (weed kill ratio 90% or more, (practically complete withering)) | e (wheat) effect on crop grade [13]: 2 (weed kill ratio 20% or more, less than 40%) | P (birds-eye speedwell) weedkilling efficacy grade [14]: 4 (weed kill ratio 70% or more, less than 90%) | N (chickweed) weedkilling efficacy grade [15]: 0 (weed kill ratio 5% or less (practically no effect)) | A (barnyard grass) weedkilling efficacy grade [16]: 5 (weed kill ratio 90% or more, (practically complete withering)) | c (corn) effect on crop grade [17]: 0 (weed kill ratio 5% or less (practically no effect)) | H (black-grass) weedkilling efficacy grade [18]: 5 (weed kill ratio 90% or more, (practically complete withering)) | B (bulrush) weedkilling efficacy grade [19]: 5 (weed kill ratio 90% or more, (practically complete withering)) | b (directly sown rice) effect on crop grade [20]: 3 (weed kill ratio 40% or more, less than 70%) | c (corn) effect on crop grade [21]: 1 (weed kill ratio 5% or more, less than 20%) | L (redroot pigweed) weedkilling efficacy grade [22]: 3 (weed kill ratio 40% or more, less than 70%) | H (black-grass) weedkilling efficacy grade [23]: 5 (weed kill ratio 90% or more, (practically complete withering)) | O (catchweed) weedkilling efficacy grade [24]: 3 (weed kill ratio 40% or more, less than 70%) | d (soybean) effect on crop grade [25]: 4 (weed kill ratio 70% or more, less than 90%) | b (directly sown rice) effect on crop grade [26]: 4 (weed kill ratio 70% or more, less than 90%) | f (beet) effect on crop grade [27]: 0 (weed kill ratio 5% or less (practically no effect)) | K (Indian mallow) weedkilling efficacy grade [28]: 0 (weed kill ratio 5% or less (practically no effect)) | M (fig-leafed goosefoot) weedkilling efficacy grade [29]: 4 (weed kill ratio 70% or more, less than 90%) | C (oval-leafed pondweed) weedkilling efficacy grade [30]: 4 (weed kill ratio 70% or more, less than 90%) | E (green foxtail) weedkilling efficacy grade [31]: 5 (weed kill ratio 90% or more, (practically complete withering)) | M (fig-leafed goosefoot) weedkilling efficacy grade [32]: 3 (weed kill ratio 40% or more, less than 70%) | A (barnyard grass) weedkilling efficacy grade [33]: 3 (weed kill ratio 40% or more, less than 70%) | D (crabgrass) weedkilling efficacy grade [34]: 5 (weed kill ratio 90% or more, (practically complete withering)) | I (Italian ryegrass) weedkilling efficacy grade [35]: 5 (weed kill ratio 90% or more, (practically complete withering))
